Common to all, as to experiment: NCI anticancer screen, dose series, 48 h
In assay [1] the test system is OVCAR-4 ovarian.
In assay [2] the test system is BT-549 breast.
Assay [3] has as its system A549 NSCLC.
In assay [4] the test system is RPMI-8226 leukemia.
Assay [5] concerns LOX IMVI melanoma.
Assay [6] deals with NCI-H23 lung.
Assay [7] relates to A498 renal.
Assay [8] concerns SK-MEL-28 melanoma.

Molecules are shown by their SMILES.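 Growth conditions: 96-well plates. Treatment: test compound, 48 hours, 5 concentrations. Analysis: linear interpolation between bracketing concentrations; unreached endpoints set to highest concentration. Here, GI50 denotes the concentration required for 50% inhibition of growth. Definition used: TGI = concentration required for complete inhibition of growth.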

`CN(CCCCCl)P(=O)(OCCS(=O)(=O)CC(NC(=O)CCC(N)C(=O)O)C(=O)NC(C(=O)O)c1ccccc1)OCC1OC(n2ccc(N)nc2=O)C(O)C1O` (centres undefined): the GI50 in assay [1] was 47.5 µM; in assay [2], 48.7 µM; in assay [3], 4.45 µM; in assay [4], 14.7 µM; in assay [5], 45.5 µM; in assay [6], 22.6 µM. Also, the GI50 in assay [7] was greater than 55.1 µM; in assay [8] it was 26.2 µM. The TGI was greater than 75 µM in assay [1]; greater than 75 µM in assay [2]; greater than 75 µM in assay [3]; greater than 68.8 µM in assay [4]; greater than 75 µM in assay [5]; greater than 75 µM in assay [6]. Moreover, the TGI in assay [7] and in assay [8] was greater than 75 µM in each case.

For `N#Cc1c(NCc2ccccc2)nc(NCc2ccccc2)c(C#N)c1-c1ccc(O)cc1`, the GI50 in assay [1] is 27.7 µM; in assay [2] it was 32.8 µM; in assay [3] it was 34.1 µM; in assay [4] it was 21.9 µM; in assay [5], 16.7 µM; in assay [6], 45.3 µM. The GI50 in assay [7] was 24.9 µM; in assay [8], 66.7 µM. The TGI in assay [1] was greater than 100 µM; in assay [2], greater than 100 µM; in assay [3], greater than 100 µM; in assay [4], greater than 100 µM; in assay [5] it was 41.4 µM; in assay [6] it was greater than 100 µM. In addition, the TGI in assay [7] was 63.5 µM; in assay [8], greater than 100 µM.

Consider `CCCCOC(=O)c1ccc(N)cc1`, for which the GI50 was greater than 100 µM in assay [1]; 77.6 µM in assay [2]; 32.3 µM in assay [3]; 67.2 µM in assay [4]; 30.8 µM in assay [5]; greater than 100 µM in assay [6]. Also, the GI50 in assay [7] is 33.6 µM; in assay [8] it was greater than 100 µM. Besides, the TGI in assay [1], in assay [2], in assay [3], in assay [4], in assay [5] and in assay [6] was greater than 100 µM in each case. Moreover, the TGI in assay [7] and in assay [8] was greater than 100 µM in each case.

Consider `CC/C=C\C[C@H](F)C/C=C1/C(=O)C=C[C@@H]1C/C=C\CCCC(=O)OC`, for which the GI50 is 3.35 µM in assay [1]; 1.5 µM in assay [2]; 1.99 µM in assay [3]; 1.39 µM in assay [4]; 0.854 µM in assay [5]; 2.16 µM in assay [6]. Also, the GI50 in assay [7] was 9.41 µM; in assay [8], 1.52 µM. For the same compound, the TGI in assay [1] was found to be 10.1 µM; in assay [2] it was 4.15 µM; in assay [3], 10.5 µM; in assay [4] it was 5.49 µM; in assay [5], 1.75 µM; in assay [6], 10.9 µM. In addition, the results for the TGI in assay [7] and in assay [8] were 17.2 µM and 4.94 µM, respectively.

Take `Cc1c(-c2ccc(C3CCCCC3)cc2)nc2ccc(F)cc2c1C(=O)O`: the GI50 in assay [1] was 38 µM; in assay [2], 9.89 µM; in assay [3], 0.128 µM; in assay [4], 0.273 µM; in assay [5], 0.0512 µM; in assay [6] it was 6.54 µM. For the same compound, the GI50 was greater than 36.6 µM in assay [7] and 14.5 µM in assay [8]. Moreover, the TGI in assay [1], in assay [2], in assay [3], in assay [4], in assay [5] and in assay [6] was greater than 100 µM each time. The TGI in assay [7] and in assay [8] was greater than 100 µM each time.

Take `COc1cc2c(c(OC)c1OC)-c1ccc(O)cc1[C@@H](NC(C)=O)CC2`: the GI50 in assay [1] is 0.0706 µM; in assay [2], 0.152 µM; in assay [3], 0.0666 µM; in assay [4] it was 0.0312 µM; in assay [5], 0.0803 µM; in assay [6], 0.0544 µM. Further, the GI50 in assay [7] was 0.0269 µM; in assay [8], 0.0528 µM. The TGI was greater than 100 µM in assay [1]; greater than 100 µM in assay [2]; greater than 100 µM in assay [3]; greater than 100 µM in assay [5]; greater than 100 µM in assay [6]; 0.0956 µM in assay [7]. This compound also showed a TGI in assay [8] greater than 100 µM.

In the case of `CC1=C2CC(C)(C)/C=C\C(=O)/C(C)=C\C3=C[C@H](C)C[C@]3(O2)C1=O`, the TGI in assay [1] worked out at 5.28 µM; in assay [2], 1.5 µM; in assay [3], 15.5 µM; in assay [4] it was 1.51 µM; in assay [5], 1.64 µM; in assay [6], 3.76 µM. Further, the TGI in assay [7] is 11.1 µM; in assay [8], 1.74 µM.

For `C[C@@]1(C(=O)O)CCC[C@]2(C)C1CC[C@@]13C[C@@](O)(CC[C@]12O)[C@@]1(CO1)C3` (some centres undefined), the GI50 in assay [1], in assay [2], in assay [3], in assay [4], in assay [5] and in assay [6] was greater than 100 µM in each case. Further, the GI50 in assay [7] and in assay [8] was greater than 100 µM in each case. The TGI in assay [1], in assay [2], in assay [3], in assay [4], in assay [5] and in assay [6] was greater than 100 µM each time. Besides, the TGI in assay [7] and in assay [8] was greater than 100 µM in each case.

Consider `C=C(CN1CCN(c2ccc(C(F)(F)F)cc2)CC1)c1ccc(C(=O)Nc2ccccc2N)cc1`, for which the GI50 in assay [1] was 5.68 µM; in assay [2], 6.93 µM; in assay [3], 6.43 µM; in assay [4], 0.405 µM; in assay [5] it was 11.1 µM; in assay [6] it was 9.49 µM. Besides, the GI50 in assay [7] was 7.67 µM; in assay [8], greater than 100 µM. In addition, the TGI was greater than 100 µM in assay [1]; 97.8 µM in assay [2]; 45.5 µM in assay [3]; greater than 100 µM in assay [5]; greater than 100 µM in assay [6]; 61.5 µM in assay [7]. In assay [8], this compound yielded a TGI greater than 100 µM.

These data come from PubChem BioAssay (NCI).
